Test results: patent US4684644A, “Basic monocarboxyamide derivatives of actagardine having antibiotic activity and compositions thereof” (Gruppo Lepetit S.p.A., priority 1985, dated 1987)
Where two headings read alike, the source gives them in different places.

Legend:
[1] = system: S. mitis L 1320; assay: In vitro antibacterial activity (MIC), S. mitis L 1320; type: cell-based; conditions: S. mitis L 1320, clinical isolate; 2% bovine serum
Description: (§1) Minimal inhibitory concentration (MIC) are determined by the twofold serial dilution method in Brain heart infusion broth (Difco); it is supplemented with 2% bovine serum when streptococci are tested. The inoculum size is about 10^3 colony units per ml (CFU/ml). The MIC is defined as the lowest concentration which prevents visible growth after overnight incubation at 37° C. The influence of serum is determined on S. aureus Tour by adding 30% bovine serum to the medium. […] The antimicrobial activities of the compounds of the invention in comparison with reference compound (actagardine) are reported in the following Table IV:
(§2) ^(3) Clinical isolates.

[2] = system: S. pneumoniae UC 41; assay: In vitro antibacterial activity (MIC), S. pneumoniae UC 41; type: cell-based; conditions: 2% bovine serum, ~10^3 CFU/ml
Description: as §1, with “IV: […]” for “IV:”

[3] = system: S. viridans L 1322; assay: In vitro antibacterial activity (MIC), S. viridans L 1322; type: cell-based; conditions: S. viridans L 1322, clinical isolate; 2% bovine serum
Description: as §1, §2

[4] = system: S. sanguis H L 1324; assay: In vitro antibacterial activity (MIC), S. sanguis H L 1324; type: cell-based; conditions: S. sanguis H L 1324, clinical isolate; 2% bovine serum
Description: as §1, §2

[5] = Acid-base titration in MCS:H2O (pK of basic functions); type: physicochemical; conditions: MCS:H2O 4:1 (v/v)
Description: ^(2) Acid-base titrations were carried out in both aqueous
[methylcellosolve (MCS): water 4:1 (v/v)] and nonaqueous [pyridine or
acetic acid] solvents. The pKMCS values (pK2) of the additional
basic functions were determined in MCS:H2 O 4:1 (v/v) solution by
titration of the compounds with 0.01 N Na OH. The presence of the free
amino group of actagardine (pKMCS 6.3) in the derivatives, except
compound XIII, was confirmed by titration with 0.01 N HCl. Compound XIII
equivalent weights (E W) were obtained by titration with either
hydroxytetrabutylamine (HTBA) in pyridine or perchloric acid (HClO4)
actagardine (pKMCS 6.3) unmodified. Titration in MCS:H2 O 4:1

[6] = system: S. salivarius L 1323; assay: In vitro antibacterial activity (MIC), S. salivarius L 1323; type: cell-based; conditions: S. salivarius L 1323, clinical isolate; 2% bovine serum
Description: as §1, §2

[7] = system: S. aureus TOUR; assay: In vitro antibacterial activity (MIC), S. aureus TOUR; type: cell-based
Description: as §1, with “The inoculum size is about 10^3 colony units per ml (CFU/ml).” left out
^(2) In the presence of 30% bovine serum

[8] = system: S. pyogenes C 203; assay: In vitro antibacterial activity (MIC), S. pyogenes C 203; type: cell-based; conditions: 2% bovine serum, ~10^3 CFU/ml
Description: as §1, with “IV: […]” for “IV:”

[9] = Solubility in water; conditions: for Solubility in water, pH 4.0 / Solubility in water, pH 7.3: approximate values
[10] = system: S. faecalis D L 1321; assay: In vitro antibacterial activity (MIC), S. faecalis D L 1321; type: cell-based; conditions: S. faecalis D L 1321, clinical isolate; 2% bovine serum
Description: as §1, §2

[11] = system: S. bovis D L 1325; assay: In vitro antibacterial activity (MIC), S. bovis D L 1325; type: cell-based; conditions: S. bovis D L 1325, clinical isolate; 2% bovine serum
Description: as §1, §2

[12] = Partition coefficient (log P) between n-octanol and water; type: physicochemical
Description: ^(3) Partition coefficients (log P) were determined between noctanol
and water. The concentration of the compounds in each phase was determine
spectrophotometrically (UV).
^(6) 0.1 M acetate buffer pH 3.0.
is log P between noctanol and 0.1 M phosphate buffer pH 7.3.

[13] = system: S. pyogenes C 203; assay: In vivo test in mice experimentally infected with S. pyogenes C 203; conditions: mice infected i.p. with S. pyogenes C 203; s.c. once a day for three days; survival on 10th day
Description: (§3) The antimicrobial activity of the compounds of the invention is also confirmed in in vivo test in mices experimentally infected with S. pyogenes or S. pneumoniae. The experiments are conducted essentially as described by R. Pallanza et al., J. Antimicrob. Chemother. 11, 419 (1983).
(§4) The experimental infection was induced in mice by intraperitoneally administering a suspension of the test pathogens. Inocula had been adjusted so that the untreated animals died of septicemia within 48 h. Animals were treated subcutaneously with the test compound once a day for three days starting about 30 min after infection.
(§5) The ED50 value was calculated on the 10th day by the method of Spearman and Karber (D. J. Finney "Statistical Method in Biological Assay", Griffin, page 524, 1952) on the basis of the percentage of survival at each dose.

[14] = system: S. pyogenes C 203; assay: Bactericidal activity against growing cells of S. pyogenes C 203; type: cell-based; conditions: 10 times the MIC, Todd-Hewitt broth, 37° C.
Description: The antibacterial activity of compound III (a and b) was compared with that of actagardine against growing cells of S. pyogenes C 203. […] For compound III, this level of killing action was obtained also at a dose equal to the MIC (0.4 ug/ml). This comparison was carried out on Todd-Hewitt broth(s) containing compound III and actagardine at concentrations equal to or multiple of the MIC which were inoculated with growing cells of S. pyogenes C 203 (~10^6 CFU/ml). The cultures were incubated at 37° C. with shaking and viable cells were counted at intervals.

[15] = system: gram-positive organisms; conditions: in vitro and in vivo; cited from earlier work
[16] = system: S. pneumoniae UC41; assay: In vivo test in mice experimentally infected with S. pneumoniae UC41; conditions: mice infected i.p. with S. pneumoniae UC41; s.c. once a day for three days; survival on 10th day
Description: as §3, §4, §5

[17] = in the presence of 30% bovine serum
[18] = n-octanol/0.1 M acetate buffer pH 3.0

Substance	MIC [1] [µg/mL]	MIC [2] [µg/mL]	MIC [3] [µg/mL]	MIC [4] [µg/mL]	MIC [6] [µg/mL]	MIC [7, 17] [µg/mL]	MIC ([7]; inoculum 10^3 CFU/ml) [µg/mL]	MIC ([7]; inoculum 10^6 CFU/ml) [µg/mL]	MIC [8] [µg/mL]	Solubility in water, pH 4.0 [9] [mg/ml]	Solubility in water, pH 7.3 [9] [mg/ml]	MIC [10] [µg/mL]	MIC [11] [µg/mL]	Partition Coeff. (log P), CH3(CH2)7OH/H2O, pH 3 [12, 18]	ED50 [13] [mg/kg]	also measured
actagardine [reference compound]	12.5	25	100	100	3.1	25	25	50	1.6	< 10	70	100	100	0.357	0.81	pKMCS of the free amino group of actagardine ([5]; titration with 0.01 N HCl): 6.3; solubility in water (in words) ([9]; acid form): not soluble in water; log P between n-octanol and 0.1 M phosphate buffer pH 7.3 ([12]; n-octanol/0.1 M phosphate buffer pH 7.3): -0.545; killing effect ([14]; 24 h): 99.9%; killing effect ([14]; after 5 h of incubation): 99%; antimicrobial activity (in words) [15]: antimicrobial in vitro and in vivo activity against gram-positive organisms
actagardine N-(2-aminoethyl)-1,2-ethanediamine monocarboxamide [IV]	3.1	12.5	25	50	0.8	12.5	50	50	0.8			100	25		0.62	Partition Coeff. (log P), CH3(CH2)7OH/H2O, pH 3 ([12]; 0.1 m acetate buffer, pH 3): -1.353; Partition Coeff. (log P), CH3(CH2)7OH/H2O, H2O ([12]; distilled water): -0.680; Solubility in water, pH 4.0: 100 mg/ml
actagardine 3,3-dimethylamino-1-propylamide monocarboxamide, hydrochloride [IIIb]										600	200			-1.644	0.47	pk2 (MCS/H2O) ([5]; pKMCS of additional basic function, titration with 0.01 N NaOH): 9.2; ED50 [16]: 3.5 mg/kg
N-ethyl actagardine 3,3-dimethylamino-1-propylamide monocarboxamide [Compound XIII]	3.1	12.5		50	0.8		50		0.8			100	25		0.23	
